Results taken from PubChem BioAssay AID330 (DTP/NCI, 2004).
“And” between values parts separate entries of the source, which are not always exact repeats. Equal values may be shown once. Inconclusive results and toxic doses are left out. Rule for the calls: active = survival T/C of 150% or more; inactive = T/C below 125% in these data. Peptide text beside a SMILES is read from it.

Tested on: P388 leukemia ip, CD2F1 mice, survival T/C
Test: NCI In Vivo Anticancer Drug Screen. Data for tumor model P388 Leukemia (intraperitoneal) in CD2F1 (CDF1) mice
Conditions: endpoint: median survival time, higher = longer survival
In short: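 Mice carrying the transplanted tumor received test compound or vehicle. Survival was recorded in each group, and the value is the treated-group measurement divided by that of the vehicle-treated control group.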

[1] = dose: 60.0 mg/kg/injection, schedule: Q01DX005 (ip), vehicle: saline with Tween-80
[2] = dose: 120.0 mg/kg/injection, schedule: Q01DX005 (ip), vehicle: saline with Tween-80
[3] = dose: 240.0 mg/kg/injection, schedule: Q01DX005 (ip), vehicle: saline with Tween-80
[4] = dose: 12.5 mg/kg/injection, schedule: Q01DX005 (ip), vehicle: Klucel (hydroxypropylcellulose) (HPC)
[5] = dose: 25.0 mg/kg/injection, schedule: Q01DX005 (ip), vehicle: Klucel (hydroxypropylcellulose) (HPC)
[6] = dose: 50.0 mg/kg/injection, schedule: Q01DX005 (ip), vehicle: Klucel (hydroxypropylcellulose) (HPC)
[7] = dose: 100.0 mg/kg/injection, schedule: Q01DX005 (ip), vehicle: Klucel (hydroxypropylcellulose) (HPC)
[8] = dose: 200.0 mg/kg/injection, schedule: Q01DX005 (ip), vehicle: Klucel (hydroxypropylcellulose) (HPC)
[9] = dose: 50.0 mg/kg/injection, schedule: Q01DX005 (ip), vehicle: saline with Tween-80
[10] = dose: 100.0 mg/kg/injection, schedule: Q01DX005 (ip), vehicle: saline with Tween-80
[11] = dose: 200.0 mg/kg/injection, schedule: Q01DX005 (ip), vehicle: saline with Tween-80
[12] = dose: 50.0 mg/kg/injection, schedule: Q01DX005 (ip), vehicle: saline
[13] = dose: 100.0 mg/kg/injection, schedule: Q01DX005 (ip), vehicle: saline

Measured: T/C

O=C(O)c1cccc2nc3cc4c(c(C(=O)O)c3nc12)OCO4
inactive: [1] 93 % of control | [2] 99 % of control | [3] 105 % of control

CCOc1ccc(C(C)c2cc3c(cc2OCCO)OCO3)cc1 (centres undefined)
inactive: [4] 109 % of control | [5] 97 % of control | [6] 104 % of control | [7] 103 % of control | [8] 102 % of control

COc1ccc2c(c1)N(C(=O)CNC(C)(C)C)c1ccccc1S2
inactive: dose: 100.0 mg/kg/injection, schedule: Q04DX002 (ip), vehicle: saline 117 % of control | dose: 200.0 mg/kg/injection, schedule: Q04DX002 (ip), vehicle: saline 99 % of control

Clc1ccccc1C(Nc1cnccn1)Nc1cnccn1
inactive: [9] 120 % of control | [10] 114 % of control | [11] 110 % of control | dose: 400.0 mg/kg/injection, schedule: Q01DX005 (ip), vehicle: saline with Tween-80 121 % of control

CC1(C(=O)O)C2C=CC3(CN(c4ccccc4)C(=O)C31c1ccccc1)O2 (centres undefined)
inactive: dose: 60.0 mg/kg/injection, schedule: Q01DX005 (ip), vehicle: Klucel (hydroxypropylcellulose) (HPC) 89 % of control | dose: 120.0 mg/kg/injection, schedule: Q01DX005 (ip), vehicle: Klucel (hydroxypropylcellulose) (HPC) 100 % of control | dose: 240.0 mg/kg/injection, schedule: Q01DX005 (ip), vehicle: Klucel (hydroxypropylcellulose) (HPC) 102 % of control

O=S(=O)(O)OCNc1cc(F)cc(F)c1
inactive: dose: 50.0 mg/kg/injection, schedule: Q01DX009 (ip), vehicle: saline 96 % of control | dose: 100.0 mg/kg/injection, schedule: Q01DX009 (ip), vehicle: saline 99 % of control | dose: 200.0 mg/kg/injection, schedule: Q01DX009 (ip), vehicle: saline 101 % of control

CC(O)C(N)C(=O)NC(C(=O)NC(C(=O)O)C(C)O)C(C)O (stereo not drawn) (H-Thr-Thr-Thr-OH; configuration not given here)
inactive: [12] 104 % of control | [13] 92 % of control | dose: 200.0 mg/kg/injection, schedule: Q01DX005 (ip), vehicle: saline 104 % of control

Clc1ccc(-c2nc(-c3cc4cc(Cl)ccc4o3)cs2)cc1
inactive: dose: 50.0 mg/kg/injection, schedule: Q01DX009 (ip), vehicle: Klucel (hydroxypropylcellulose) (HPC) 100 % of control | dose: 100.0 mg/kg/injection, schedule: Q01DX009 (ip), vehicle: Klucel (hydroxypropylcellulose) (HPC) 100 % of control | dose: 200.0 mg/kg/injection, schedule: Q01DX009 (ip), vehicle: Klucel (hydroxypropylcellulose) (HPC) 104 % of control

CC(C)=CCCC(C)C1(O)CCC(C)=CC1=O (centres undefined)
inactive: [4] 96 % of control | [5] 99 % of control | [6] 94 % of control | [7] 99 % of control

O=c1c2ccccc2nc(-c2ccccc2Cl)n1/N=C/c1ccc(Cl)cc1Cl
inactive: [9] 93 % of control | [10] 103 % of control | [11] 102 % of control

CCc1ccccc1NC(=O)C(=O)CC(=O)c1ccc(Cl)s1
inactive: dose: 100.0 mg/kg/injection, schedule: Q04DX002 (ip), vehicle: saline with Tween-80 100 % of control | dose: 200.0 mg/kg/injection, schedule: Q04DX002 (ip), vehicle: saline with Tween-80 102 % of control | dose: 400.0 mg/kg/injection, schedule: Q04DX002 (ip), vehicle: saline with Tween-80 103 % of control

C/C=C/C(C)C1OC1(C)C(O)C1COC(=O)C(O)C(OC)C(C)C(=O)C(C)C(O)/C(C)=C/C(C)C(=O)CC(O)C(C)C1=O (centres undefined)
inactive: dose: 0.39 micrograms/kg/injection, schedule: Q01DX005 (ip), vehicle: saline 106 % of control | dose: 0.78 micrograms/kg/injection, schedule: Q01DX005 (ip), vehicle: saline 119 % of control | dose: 1.56 micrograms/kg/injection, schedule: Q01DX005 (ip), vehicle: saline 123 % of control | dose: 3.12 micrograms/kg/injection, schedule: Q01DX005 (ip), vehicle: saline 119 % of control | dose: 6.25 micrograms/kg/injection, schedule: Q01DX005 (ip), vehicle: saline 113 % of control and 123 % of control

O=C(O)CCC(Nc1ncnc2nc[nH]c12)C(=O)O (centres undefined)
inactive: [9] 92 % of control | [10] 97 % of control | [11] 89 % of control

S=c1c(-c2ccccc2)cnc2sccn12
inactive: [1] 100 % of control | [2] 96 % of control | [3] 98 % of control

CCCCCCCCCCCCOCCCOP(=O)([O-])OCC[N+](C)(C)C
inactive: dose: 6.25 mg/kg/injection, schedule: Q01DX005 (ip), vehicle: saline 105 % of control | dose: 12.5 mg/kg/injection, schedule: Q01DX005 (ip), vehicle: saline 100 % of control | dose: 25.0 mg/kg/injection, schedule: Q01DX005 (ip), vehicle: saline 91 % of control | [12] 91 % of control | [13] 107 % of control

CCCC(O)(CCC)/C(C)=N/O
inactive: dose: 12.5 mg/kg/injection, schedule: Q01DX009 (ip), vehicle: saline with Tween-80 99 % of control | dose: 25.0 mg/kg/injection, schedule: Q01DX009 (ip), vehicle: saline with Tween-80 107 % of control | dose: 50.0 mg/kg/injection, schedule: Q01DX009 (ip), vehicle: saline with Tween-80 87 % of control and 98 % of control | dose: 200.0 mg/kg/injection, schedule: Q01DX009 (ip), vehicle: saline with Tween-80 88 % of control

Cc1cc(N=Nc2cc(C)c(NC(=O)c3ccc(NC(=O)c4ccc(N)cc4)cc3)cc2C)ccc1N=Nc1ccc2cc(S(=O)(=O)O)cc(S(=O)(=O)O)c2c1
inactive: [9] 110 % of control | [10] 111 % of control | [11] 110 % of control

O=NC=C1N(O)C=CN1O
inactive: dose: 25.0 mg/kg/injection, schedule: Q01DX009 (ip), vehicle: other 102 % of control | dose: 50.0 mg/kg/injection, schedule: Q01DX009 (ip), vehicle: other 101 % of control | dose: 100.0 mg/kg/injection, schedule: Q01DX009 (ip), vehicle: other 97 % of control | dose: 200.0 mg/kg/injection, schedule: Q01DX009 (ip), vehicle: other 102 % of control | dose: 400.0 mg/kg/injection, schedule: Q01DX009 (ip), vehicle: other 99 % of control

N#CCCN(CCC#N)c1ccc(/C=C2/C=C(c3ccccc3)OC2=O)cc1
inactive: dose: 100.0 mg/kg/injection, schedule: Q01DX001 (ip), vehicle: saline with Tween-80 97 % of control | dose: 200.0 mg/kg/injection, schedule: Q01DX001 (ip), vehicle: saline with Tween-80 94 % of control | dose: 400.0 mg/kg/injection, schedule: Q01DX001 (ip), vehicle: saline with Tween-80 90 % of control

c1ccc2c(N3CCCCC3)ncnc2c1
inactive: [12] 107 % of control | [13] 100 % of control

CCCCOC(=O)NC(=O)c1cc2ccc(N(CC)CC)cc2oc1=O
inactive: [1] 95 % of control | [2] 87 % of control | [3] 87 % of control

COC(=O)C1C2CC3c4c(c5ccc(OC)cc5n4[N+](=O)[O-])CCN3CC2CC(OC(=O)c2cc(OC)c(OC)c(OC)c2)C1OC (centres undefined)
inactive: [4] 96 % of control | [5] 98 % of control | [6] 104 % of control | [7] 114 % of control | [8] 88 % of control

c1ccc(-c2c3ccccc3c[n+]3ccccc23)cc1
inactive: dose: 3.13 mg/kg/injection, schedule: Q01DX009 (ip), vehicle: Klucel (hydroxypropylcellulose) (HPC) 106 % of control | dose: 6.25 mg/kg/injection, schedule: Q01DX009 (ip), vehicle: Klucel (hydroxypropylcellulose) (HPC) 92 % of control
